How the values were obtained:
Assay in all cases: Cell viability assay (CCK-8), IC50
Type in all cases: cell-based
OVCAR5 cells = conditions: Homo sapiens, OVCAR-5, 6 days, medium replenished every 2 days
Experimental: (§1) Human breast cancer cell lines MDA-MB-231 and SUM-159, and human ovarian cancer cell lines OVCAR5 and SKOV3 were obtained from the American Type Culture Collection (ATCC). MDA-MB-231 cells were cultured in L-15 medium with 10% fetal bovine serum (FBS), incubated at 37 °C in a humidified incubator without additional CO2. SUM-159 cells were maintained in Dulbecco’s modified Eagle’s medium (DMEM) containing 10% FBS, and OVCAR5 and SKOV3 cells were incubated in Roswell Park Memorial Institute (RPMI)-1640 medium with 10% FBS and cultured at 37 °C in a humidified incubator containing 5% CO2.
(§2) Cell viability assay was performed as described before. Briefly, 2500/well of breast or ovarian cancer cells were seeded into a 96-well plate; grown overnight; treated with indicated concentration of Olaparib, LY2835219, ZC22, LP-1, GC-24, or cisplatin alone or together for an indicated amount of time; and then incubated with Cell Counting kit-8 (CCK-8) substrate (Dojindo, Kumamoto, Kyushu Island, Japan) for 1–2 h at 37 °C. Cell viability was calculated by the absorbance at 450 nm measured by the GloMax Explorer (Promega, Madison, WI, USA). Cells without treatment were set as 100%, and medium control (no cells) was set as 0%.
(§3) Figure 1 Synthesis strategy and activity assay of the novel compounds targeting both PARP and CDK4/6. (A) Synthesis strategy of the three novel compounds GC-24, LP-1, and ZC-22. (B) IC50 of GC-24, LP-1, and ZC-22 in breast and ovarian cancer cells. Cells were treated with increasing concentrations of GC-24, LP 1, or ZC-22 for 6 days with replenishment of medium every 2 days. Cell proliferation was analyzed by CCK-8 assays. (C) The reagents and conditions used for the chemical synthesis of ZC-22 in this study: (a) Pd(AcO)2, BINAP, CS2CO3, 1,4-Dioxane, 100 °C, 12 h; (b) CF3COOH, DCM, Room temperature, 6 h; (c) HOBt, EDCI, DIPEA, DMF, Room temperature, 12 h. TEXT PRINTED IN THE PICTURE: (B) LP-1: MDA-MB-231 IC50 (μM): >50; SUM-159 IC50 (μM): 7.780; OVCAR5 IC50 (μM): 10.11; SKOV3 IC50 (μM): 10.16 | (B) GC-24: MDA-MB-231 IC50 (μM): 33.77; SUM-159 IC50 (μM): 17.77; OVCAR5 IC50 (μM): 26.08; SKOV3 IC50 (μM): >50 | (B) ZC-22: MDA-MB-231 IC50 (μM): 3.608; SUM-159 IC50 (μM): 0.435; OVCAR5 IC50 (μM): 0.758; SKOV3 IC50 (μM): 0.542
(§4) Figure 2 ZC-22 suppresses proliferation of breast and ovarian cancer cells. (A) IC50 of ZC-22, Olaparib, and LY2835219 (Abemaciclib) in breast and ovarian cancer cells. Cells were treated with increasing concentrations of ZC-22, Olaparib, or LY2835219 for 6 days with replenishment of medium every 2 days. Cell proliferation was analyzed by CCK-8 assays. (B) Cell proliferation assay of breast and ovarian cancer cells with indicated treatment. MDA-MB-231 cells were treated with 2 μM Olaparib (OLA) or LY2835219 (LY-2) alone or together (OLA + LY-2) or with ZC-22 alone for 48 or 72 h. SUM-159, OVCAR5, and SKOV3 cells were treated with 0.5 μM OLA or LY-2 alone or together or with ZC-22 alone. Cell proliferation assay was analyzed by CCK-8 assays. Values are means ± SD, n = 3. ns, not significant, * p < 0.05, ** p < 0.01 and *** p < 0.001 for comparisons with the DMSO-treated group using an unpaired t-test. TEXT PRINTED IN THE PICTURE: (A) ZC-22: MDA-MB-231 IC50 (μM): 3.608; SUM-159 IC50 (μM): 0.435; OVCAR5 IC50 (μM): 0.758; SKOV3 IC50 (μM): 0.542 | (A) LY2835219: MDA-MB-231 IC50 (μM): 11.28; SUM-159 IC50 (μM): 0.664; OVCAR5 IC50 (μM): 9.791; SKOV3 IC50 (μM): 1.158 | (A) Olaparib: MDA-MB-231 IC50 (μM): 32.13; SUM-159 IC50 (μM): 19.29; OVCAR5 IC50 (μM): 30.51; SKOV3 IC50 (μM): >50

MDA-MB-231 cells = conditions: Homo sapiens, 6 days, medium replenished every 2 days
Experimental: as §1, §2, §3, §4

SUM-159 cells = conditions: Homo sapiens, SUM159, 6 days, medium replenished every 2 days
Experimental: as §1, §2, §3, §4

SKOV3 cells = conditions: Homo sapiens, SK-OV-3, 6 days, medium replenished every 2 days
Experimental: as §1, §2, §3, §4

Structure (SMILES) | IC50 (OVCAR5 cells) | IC50 (MDA-MB-231 cells) | IC50 (SUM-159 cells) | IC50 (SKOV3 cells)
CCN1CCN(Cc2ccc(Nc3ncc(F)c(-c4cc(F)c5nc(C)n(C(C)C)c5c4)n3)nc2)CC1 [LY2835219, Abemaciclib, reference compound] | 9790 nM | 11300 nM | 664 nM | 1160 nM
Cc1nc2c(F)cc(-c3nc(Nc4ccc(N5CCN(C(=O)c6cc(Cc7n[nH]c(=O)c8ccccc78)ccc6F)CC5)cn4)ncc3F)cc2n1C(C)C [ZC-22, 4-(4-fluoro-3-(4-(6-((5-fluoro-4-(4-fluoro-1-isopropyl-2-methyl-1H-benzo[d]imidazole-6-yl)pyrimidin-2-yl)amino)pyridin-3-yl)piperazine-1-carbonyl)benzyl)phthalazin-1(2H)-one] | 758 nM | 3610 nM | 435 nM | 542 nM
